# Source: patent publication US6384052B1, “Anticoccidial compounds” (Merck & Co., Inc., priority 1999, dated 2002)
# Legend:
# [1] = system: Eimeria acervulina, E. tenella; test: Anticoccidiosis assay (oocyst production in infected chickens on medicated diet); format: in vivo, White Leghorn chickens; parameters: key: at least 80% reduction in oocyst production are considered active; those with 50-79% are considered partially active; those with <50% are considered inactive; conditions: 100 ppm in diet; chickens infected with E. acervulina or E. tenella
# Experimental: (§1) Compound of the present invention and 2-(4-fluorophenyl)-5-(N-methylpiperidin-4-yl)-3-(4-pyridyl)pyrrole were evaluated in anticoccidiosis assay and toxicology studies. In these studies, medicated diets were prepared by dissolving the proper quantity of the test compound in dimethylsulfoxide or acetone, mixing the resultant solution into a few grams of the basal diet, and then placing the mixture under a fume hood for dehydration. The dry mixture is made into a uniform premix with an electric grinder, and then blended with the desired quantity of basal diet for the final formulation in a commercial bowl mixer.
# One-day-old White Leghorn chickens are obtained from a commercial hatchery and acclimated in a holding room. At three days of age the test animals are selected by weight, wingbanded, and randomly placed on medicated or control diets for the duration of the experiment. One or two replicates of two birds are utilized per treatment. Following 24 h premedication, in each replicate one bird is infected with Eimeria acervulina, the other bird is infected with E. tenella. Both strains of Eimeria are sensitive to all anticoccidial products, and have been maintained in laboratory conditions for over 25 years. […] The measured parameters are weight gain, feed consumption and oocyst production. E. tenella lesion scores are also recorded for background information. […]
# [2] = Acute Toxicity Evaluation (intraperitoneal, twice a day for three days); format: in vivo; conditions: 100 mg/kg/day intraperitoneally, necropsy on day 4, two chickens per group
# Experimental: For acute toxicity evaluation, chickens are dosed intraperitoneally twice a day at desired dose for three days. On day 4 birds are necropsied and examined for gross lesions and weight suppression. Two chickens are used in each treatment group.
# [3] = Toxicity Evaluation (38-day medicated diet, liver necrosis and urate crystal deposition); format: in vivo, male broiler chickens; conditions: 125 ppm in diet; for chickens with urate crystal deposition in the kidneys: affected/examined
# Experimental: as §1
# Day-old male broiler chickens are received on Day 0 of the trial, weighed, wingbanded, and placed on medicated or control diet in standard battery cages. Three treatments are used in the study: (A) medicated diet containing 125 ppm of 2-(4-fluorophenyl)-5-(N-methylpiperidin-4-yl)-3-(4-pyridyl)pyrrole; (B) medicated diet containing 125 ppm of 2-(4-fluorophenyl)-5-(N-ethylpiperidin-4-yl)-3-(4-pyridyl)pyrrole; and (C) no medication. A total of 48 chickens are utilized per treatment. Of these, 12 birds (2 replicates of 6) are examined on D7, D14, D24 and D38 for liver necrosis and urate crystal deposition. Growth rates, feed efficiency and plasma levels are determined for background information. The trial is terminated on D38.
Structure (SMILES),anticoccidial activity (reduction in oocyst production) [1],liver necrosis / gross liver lesions at necropsy [2],"chickens showing liver necrosis or urate crystal deposition ([3]; 12 birds examined on each of D7, D14, D24 and D38)",chickens with urate crystal deposition in the kidneys ([3]; examined on D14),chickens with urate crystal deposition in the kidneys ([3]; examined on D38)
CCN1CCC(c2cc(-c3ccncc3)c(-c3ccc(F)cc3)[nH]2)CC1 [2-(4-fluorophenyl)-5-(N-ethylpiperidin-4-yl)-3-(4-pyridyl)pyrrole],active,none,None,,
CN1CCC(c2cc(-c3ccncc3)c(-c3ccc(F)cc3)[nH]2)CC1 [2-(4-fluorophenyl)-5-(N-methylpiperidin-4-yl)-3-(4-pyridyl)pyrrole],active,demonstrated gross liver lesions,,3/12,4/12
